Experimental data from patent US20180099931A1 (AbbVie S.à.r.l., priority 2016, published 2018).
Like-named read-outs stand apart in the source and are kept apart here.

Target: T1, F508delCFTR (Homo sapiens, UniProt P13569, DEL508-508)
T1 construct: expressed in transfected cells; host or cells: CFBE41o- human lung-derived epithelial cells (CFBE4lo-F508delCFTR-HRP), doxycycline-inducible
Experiment: Cell Surface Expression-Horse Radish Peroxidase (CSE-HRP) Assay;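 as to Maximum % activity (with co-corrector): co-corrector and positive control are both the same reference corrector at 2 µM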;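 as to Maximum % activity (without co-corrector): percent of the 2 µM on-plate positive control corrector response above DMSO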
Format: cell-based
Details: for Emax / Maximum % activity (with co-corrector): maximum at any tested concentration, normalized to on-plate positive control; for Emax: read-out: Maximum % activity (without co-corrector)

[1] = test compound without co-corrector
[2] = test compound without co-corrector, read-out: EC50 (without co-corrector)
[3] = with co-corrector (2 μM of 3-[(2R,4R)-4-({[1-(2,2-difluoro-1,3-benzodioxol-5-yl)cyclopropyl]carbonyl}amino)-7-methoxy-3,4-dihydro-2H-chromen-2-yl]benzoic acid)
[4] = with co-corrector (2 μM of 3-[(2R,4R)-4-({[1-(2,2-difluoro-1,3-benzodioxol-5-yl)cyclopropyl]carbonyl}amino)-7-methoxy-3,4-dihydro-2H-chromen-2-yl]benzoic acid), read-out: EC50 (with co-corrector)
[5] = CSE-HRP, test compound without co-corrector, read-out: EC50 (without co-corrector)
[6] = CSE-HRP, with co-corrector (2 μM of 3-[(2R,4R)-4-({[1-(2,2-difluoro-1,3-benzodioxol-5-yl)cyclopropyl]carbonyl}amino)-7-methoxy-3,4-dihydro-2H-chromen-2-yl]benzoic acid), read-out: EC50 (with co-corrector)
[7] = CSE-HRP, with co-corrector (2 μM)

T1 sequence (P13569 with tags, fused parts or gaps DEL508-508): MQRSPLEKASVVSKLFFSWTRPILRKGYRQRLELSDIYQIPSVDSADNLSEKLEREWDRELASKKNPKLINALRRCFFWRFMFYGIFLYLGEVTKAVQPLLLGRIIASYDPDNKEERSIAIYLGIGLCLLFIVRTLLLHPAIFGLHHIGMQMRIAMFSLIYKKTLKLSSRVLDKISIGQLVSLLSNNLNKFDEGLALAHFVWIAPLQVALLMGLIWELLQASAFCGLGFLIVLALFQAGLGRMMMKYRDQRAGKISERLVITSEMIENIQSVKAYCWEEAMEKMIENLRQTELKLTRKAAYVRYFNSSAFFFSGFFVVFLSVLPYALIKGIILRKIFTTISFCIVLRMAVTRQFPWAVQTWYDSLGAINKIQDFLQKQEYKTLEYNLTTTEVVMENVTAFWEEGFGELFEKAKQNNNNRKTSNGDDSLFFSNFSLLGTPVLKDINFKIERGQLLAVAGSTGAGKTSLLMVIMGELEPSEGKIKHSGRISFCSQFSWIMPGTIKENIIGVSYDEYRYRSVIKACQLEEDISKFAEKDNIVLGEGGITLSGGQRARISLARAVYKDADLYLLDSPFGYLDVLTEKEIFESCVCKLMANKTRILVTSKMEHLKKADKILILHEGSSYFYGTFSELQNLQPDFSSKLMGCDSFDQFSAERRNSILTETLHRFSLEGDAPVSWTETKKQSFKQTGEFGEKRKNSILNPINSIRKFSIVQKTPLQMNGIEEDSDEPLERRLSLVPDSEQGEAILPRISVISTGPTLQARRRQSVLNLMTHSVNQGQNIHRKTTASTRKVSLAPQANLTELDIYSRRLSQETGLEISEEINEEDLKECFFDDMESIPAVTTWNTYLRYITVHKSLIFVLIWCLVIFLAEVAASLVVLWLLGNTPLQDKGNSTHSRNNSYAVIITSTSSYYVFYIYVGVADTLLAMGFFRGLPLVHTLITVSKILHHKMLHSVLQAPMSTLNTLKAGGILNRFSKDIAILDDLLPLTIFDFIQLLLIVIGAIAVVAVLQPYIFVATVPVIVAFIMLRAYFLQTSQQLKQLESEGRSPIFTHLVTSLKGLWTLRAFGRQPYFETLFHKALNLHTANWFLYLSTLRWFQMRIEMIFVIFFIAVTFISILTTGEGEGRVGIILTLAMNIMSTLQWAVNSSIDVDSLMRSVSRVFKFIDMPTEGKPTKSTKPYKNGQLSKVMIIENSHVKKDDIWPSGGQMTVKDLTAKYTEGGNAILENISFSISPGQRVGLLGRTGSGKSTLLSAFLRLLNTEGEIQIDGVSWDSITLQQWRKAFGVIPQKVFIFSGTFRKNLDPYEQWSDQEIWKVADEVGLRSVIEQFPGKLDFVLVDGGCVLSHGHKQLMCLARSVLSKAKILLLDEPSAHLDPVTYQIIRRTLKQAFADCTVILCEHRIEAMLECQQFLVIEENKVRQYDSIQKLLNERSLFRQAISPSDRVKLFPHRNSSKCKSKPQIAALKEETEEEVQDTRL

Row | SMILES | Emax [1] | EC50 [2] | Maximum % activity (with co-corrector) [3] | EC50 [4] | Maximum % activity (with co-corrector) (with co-corrector (2 μM)) | Emax (without co-corrector) | EC50 [5] | EC50 [6] | Maximum % activity (with co-corrector) [7] | Emax (CSE-HRP, without co-corrector)
1 | CC(C)(C)[C@@H]1[C@@H](NCc2cccc(Cl)c2O)[C@@H](c2ccccc2)N(C(=O)C2CCCCC2)[C@H]1C(=O)O (racemic) [III-9] | < 100% | > 10000 nM | ++ (≥150 and <350) | 1000 to 10000 nM |  |  |  |  |  | 
2 | COc1cc2c(cc1CN[C@H]1[C@H](C(C)(C)C)[C@@H](C(=O)O)N(C(=O)OC(C)C)[C@H]1c1cccnc1OC(C)C)CCC2 [II-574] | > 200% | 1000 to 10000 nM | +++ (≥350) | 1000 to 10000 nM |  |  |  |  |  | 
3 | COc1ccc(OC(F)F)c(CN[C@@H]2[C@@H](C(C)(C)C)[C@H](C(=O)O)N(C(=O)C3CCCCC3)[C@@H]2c2ccccc2)c1 (racemic) [Example I-14] |  | > 10000 nM |  | 1000 to 10000 nM | ++ (≥150 and <350) | < 100% |  |  |  | 
4 | COc1ccc(C(C)(C)C)cc1CN[C@H]1[C@H](C(C)(C)C)[C@@H](C(=O)O)N(C(=O)C2Cc3ccccc3O2)[C@H]1c1cccnc1N(C)C (single isomer, unassigned) [Example 36, (2S,3S,4S,5S)-3-tert-butyl-4-{[(5-tert-butyl-2-methoxyphenyl)methyl]amino}-1-[(2S*)-2,3-dihydro-1-benzofuran-2-carbonyl]-5-[2-(dimethylamino)pyridin-3-yl]pyrrolidine-2-carboxylic acid] |  | < 1000 nM |  | < 1000 nM | +++ (≥350) | 100 to 200% |  |  |  | 
5 | COc1ccc(C(C)(C)C)cc1CN[C@H]1[C@H](C(C)(C)C)[C@@H](C(=O)O)N(C(=O)C2CCC2)[C@H]1c1ccccc1C(F)(F)F [Example I-277] |  |  |  |  |  |  | 1000 to 10000 nM | 1000 to 10000 nM | +++ (≥350) | 100 to 200%
6 | COc1ncc(C(F)(F)F)cc1CN[C@H]1[C@H](C(C)(C)C)[C@@H](C(=O)O)N(C(=O)C2CCC2)[C@H]1c1ccccc1C(F)(F)F [Example I-280] |  |  |  |  |  |  | 1000 to 10000 nM | 1000 to 10000 nM | ++ (≥150 and <350) | < 100%
7 | CO[C@@H](C(=O)N1[C@H](c2cccnc2N(C)C)[C@H](Nc2cc(C(F)(F)F)cc(C)n2)[C@@H](C(C)(C)C)[C@@H]1C(=O)O)c1ccccc1 (racemic) [III-89] | < 100% | > 10000 nM | + (<150) | > 10000 nM |  |  |  |  |  | 
8 | COc1ccc(C(C)(C)C)cc1CN[C@H]1[C@H](C(C)(C)C)[C@@H](C(=O)O)N(C(=O)C2CCN(C(=O)C3CC3)CC2)[C@H]1c1ccccc1 [II-316] | > 200% | 1000 to 10000 nM | +++ (≥350) | 1000 to 10000 nM |  |  |  |  |  | 
9 | Cc1cc(C(F)(F)F)cc(N[C@H]2[C@@H](c3ccccc3)N(C(=O)C3CCCCC3)[C@@H](C(=O)O)C23CC3)n1 (racemic) [Example I-17] |  | 1000 to 10000 nM |  | 1000 to 10000 nM | ++ (≥150 and <350) | < 100% |  |  |  | 
10 | COc1cc2c(cc1CN[C@H]1[C@H](C(C)(C)C)[C@@H](C(=O)O)N(C(=O)[C@@H]3CCCCO3)[C@H]1c1cccc3c1OCC3)CCCC2 [Example I-302] |  |  |  |  |  |  | 1000 to 10000 nM | 1000 to 10000 nM | +++ (≥350) | 100 to 200%
11 | COc1ccc(C(C)(C)C)cc1CN[C@H]1[C@H](C(C)(C)C)[C@@H](C(=O)O)N(C(=O)c2cnn(C(C)(C)C)c2C(F)(F)F)[C@H]1c1ccccc1 [II-360] | 100 to 200% | 1000 to 10000 nM | +++ (≥350) | < 1000 nM |  |  |  |  |  | 
12 | CC(C)(C)[C@H]1[C@H](Nc2cc(C(F)(F)F)cc(C3CCC3)n2)[C@H](c2ccccc2)N(C(=O)C2CCCCC2)[C@@H]1C(=O)O [Example I-67] |  | 1000 to 10000 nM |  | 1000 to 10000 nM | +++ (≥350) | < 100% |  |  |  | 
13 | COc1ccc(C(C)(C)C)cc1CN[C@H]1[C@H](C(C)(C)C)[C@@H](C(=O)O)N(C(=O)[C@H]2OCC[C@H]2c2ccccc2)[C@H]1c1ccccc1 (relative stereo) [Example I-179] |  | 1000 to 10000 nM |  | 1000 to 10000 nM | +++ (≥350) | 100 to 200% |  |  |  | 
14 | COc1ccc(C(C)(C)C)cc1CN[C@H]1[C@H](C(C)(C)C)[C@@H](C(=O)O)N(C(=O)C2CCCCC2)[C@H]1c1ccccc1OC(F)F [Example I-229] |  | 1000 to 10000 nM |  | < 1000 nM | +++ (≥350) | 100 to 200% |  |  |  | 
15 | COc1nc2ccccc2cc1CN[C@H]1[C@H](C(C)(C)C)[C@@H](C(=O)O)N(C(=O)[C@@H]2CCCO2)[C@H]1c1cccnc1N(C)C [II-599] | < 100% | 1000 to 10000 nM | ++ (≥150 and <350) | 1000 to 10000 nM |  |  |  |  |  | 
16 | COc1ncc(C2CCC2)cc1CN[C@H]1[C@H](C(C)(C)C)[C@@H](C(=O)O)N(C(=O)[C@@H]2CCCCO2)[C@H]1c1ccccc1F [II-531] | 100 to 200% | 1000 to 10000 nM | +++ (≥350) | 1000 to 10000 nM |  |  |  |  |  | 
17 | CC(C)(C)[C@H]1[C@H](NCc2ccc(C(F)(F)F)cc2)[C@H](c2ccccc2)N(C(=O)C2CCCCC2)[C@@H]1C(=O)O [III-138] | < 100% | > 10000 nM |  | 1000 to 10000 nM | ++ (≥150 and <350) |  |  |  |  | 
18 | COc1ccc(C(C)C)cc1CN[C@@H]1[C@@H](C(C)(C)C)[C@H](C(=O)O)N(C(=O)C2CCCCC2)[C@@H]1c1ccccc1 (racemic) [II-73] |  |  |  |  |  |  | 1000 to 10000 nM | 1000 to 10000 nM | +++ (≥350) | > 200%
19 | COc1ccc(C(C)(C)C)cc1CN[C@H]1[C@H](C(C)(C)C)[C@@H](C(=O)O)N(C(=O)C2CCCN(C)C2=O)[C@H]1c1ccccc1 (single isomer, unassigned) [II-444] | < 100% | 1000 to 10000 nM | ++ (≥150 and <350) |  |  |  |  |  |  | 
20 | CCC(CC)Cc1ccc(OC)c(CN[C@H]2[C@H](C(C)(C)C)[C@@H](C(=O)O)N(C(=O)C3CCCCC3)[C@H]2c2ccccc2)c1 [III-170] | > 200% | < 1000 nM |  | < 1000 nM | +++ (≥350) |  |  |  |  | 
21 | COc1ccc(C(C)(C)C)cc1CN[C@H]1[C@H](C(C)(C)C)[C@@H](C(=O)O)N(C(=O)C2CCC(C)(C)C2)[C@H]1c1ccccc1 (some centres unmarked) [II-401] | > 200% | 1000 to 10000 nM | +++ (≥350) | < 1000 nM |  |  |  |  |  | 
22 | CCn1nc(C)c(C(=O)N2[C@H](C(=O)O)[C@@H](C(C)(C)C)[C@H](NCc3cc(C(C)(C)C)ccc3OC)[C@@H]2c2ccccc2)c1C [II-362] | 100 to 200% | 1000 to 10000 nM | +++ (≥350) | 1000 to 10000 nM |  |  |  |  |  | 
23 | COc1ncc(C(F)(F)F)cc1CN[C@H]1[C@H](C(C)(C)C)[C@@H](C(=O)O)N(C(=O)[C@@H]2CCCCO2)[C@H]1c1ccccc1Br [Example I-288] |  |  |  |  |  |  | 1000 to 10000 nM | < 1000 nM | +++ (≥350) | 100 to 200%
24 | COc1cc(Cl)ccc1CN[C@H]1[C@H](C(C)(C)C)[C@@H](C(=O)O)N(C(=O)[C@H](OC)c2ccccc2)[C@H]1c1cccnc1N(C)C (racemic) [II-47] |  |  |  |  |  |  | 1000 to 10000 nM | 1000 to 10000 nM | +++ (≥350) | 100 to 200%
